The conditions of the data set: 101.33 kPa, Liquid.

± gives the expanded uncertainty stated by the source.

Broadly, the mass density is mass per unit of volume. What is called speed of sound is the propagation velocity of pressure waves in the medium. The viscosity is the resistance of a fluid to flow. On to `O=C1CCCN1` [2-pyrrolidinone], for which the mass density reads like this: (298.15 K) 1107.02 ± 2.4 kg/m3; (308.15 K) 1099.15 ± 2.3 kg/m3; (318.15 K) 1091.06 ± 2.2 kg/m3; (328.15 K) 1082.87 ± 2.1 kg/m3; (338.15 K) 1070.68 ± 1.9 kg/m3. Besides, the speed of sound was found to be 1633.2 ± 6.6 m/s (298.15 K), 1603.1 ± 6.5 m/s (308.15 K), 1549.7 ± 6.4 m/s (328.15 K) and 1520.1 ± 6.3 m/s (338.15 K). For the same compound, the viscosity runs as follows: (298.15 K) 13.36 ± 0.48 mPa·s; (308.15 K) 8.844 ± 0.34 mPa·s; (318.15 K) 6.259 ± 0.26 mPa·s; (328.15 K) 4.677 ± 0.2 mPa·s; (338.15 K) 3.451 ± 0.15 mPa·s.
`CN1CCCC1=O` [N-methylpyrrolidone]: the mass density is recorded as 1028.31 ± 0.68 kg/m3 (298.15 K); 1019.33 ± 0.63 kg/m3 (308.15 K); 1010.11 ± 0.57 kg/m3 (318.15 K); 1001.18 ± 0.51 kg/m3 (328.15 K); 992.234 ± 0.56 kg/m3 (338.15 K). Further, the speed of sound (298.15 K) is reported as 1545.1 ± 13 m/s; the speed of sound (308.15 K) worked out at 1518.4 ± 12 m/s; the speed of sound (318.15 K) is given as 1477.8 ± 12 m/s; the speed of sound (328.15 K) is on record as 1448.7 ± 12 m/s; the speed of sound (338.15 K) is given as 1407.3 ± 12 m/s. The viscosity runs as follows: (298.15 K) 1.663 ± 0.078 mPa·s; (308.15 K) 1.365 ± 0.065 mPa·s; (318.15 K) 1.21 ± 0.058 mPa·s; (328.15 K) 1.117 ± 0.054 mPa·s; (338.15 K) 0.986 ± 0.049 mPa·s.
Turning to `C=CN1CCCC1=O` [N-vinylpyrrolidone], the mass density (298.15 K) was 1042.04 ± 0.77 kg/m3; the mass density (308.15 K) was determined as 1033.19 ± 0.71 kg/m3; the mass density (318.15 K) is on record as 1024.38 ± 0.66 kg/m3; the mass density (328.15 K) stood at 1015.58 ± 0.6 kg/m3; the mass density (338.15 K) is 1006.77 ± 0.55 kg/m3. Besides, the speed of sound (298.15 K) came out at 1530.1 ± 6.3 m/s; the speed of sound (308.15 K) was found to be 1499.4 ± 6.2 m/s; the speed of sound (318.15 K) stood at 1467.6 ± 6.1 m/s; the speed of sound (328.15 K) is 1430.2 ± 6 m/s; the speed of sound (338.15 K) is listed as 1403.3 ± 5.9 m/s. Moreover, the viscosity by setting is: (308.15 K) 2.942 ± 0.17 mPa·s; (318.15 K) 2.59 ± 0.15 mPa·s; (328.15 K) 2.259 ± 0.13 mPa·s; (338.15 K) 1.836 ± 0.11 mPa·s.
Consider `O` [water], for which the speed of sound came to 1498 ± 6.2 m/s (298.15 K); 1519 ± 6.3 m/s (308.15 K); 1535.1 ± 6.3 m/s (318.15 K); 1545 ± 6.3 m/s (328.15 K); 1551 ± 6.4 m/s (338.15 K).

(Values after the NIST ThermoML archive (doi:10.1021/je0340809).)
